{"source": "patent US8062607B2", "about": "“Lens care methods and kits” (Novartis AG, priority 2006, dated 2011)", "key": {"[1]": {"test": "Colorant stability in lens care solution (visible spectrum)", "format": "physicochemical", "conditions": "in Aquify MPS", "protocol": "The colorant stability has also been tested for FD&C Blue No 1 in Aquify® MPS stored at 25° and 45° C. for 94 days. […] This gives us a shelf-life estimation based on colorant stability alone of approximately a year for FD&C Blue No 1 in Aquify® MPS. The colorant stability has also been tested for Vitosyn Blue in a lens care solution described above stored at 25° and 45° C. for 52 days. […] This gives a shelf life estimation based on colorant stability alone for approximately 7 months for Vitosyn Blue in the lens care solution."}, "[2]": {"test": "Micro testing of dye in Aquify MPS as a stand alone solution", "format": "cell-based", "conditions": "dissolved in Aquify MPS", "excerpt": "FD&C Blue No 1, Sanolin Blue, and Remazol Blue dissolved in Aquify® MPS (CIBA Vision) are submitted for micro testing as a stand alone solution."}}}
{"smiles": "CCN(Cc1cccc(S(=O)(=O)[O-])c1)c1ccc(C(=C2C=CC(=[N+](CC)Cc3cccc(S(=O)(=O)[O-])c3)C=C2)c2ccccc2S(=O)(=O)[O-])cc1.[Na+].[Na+]", "note": "[FD&C Blue No 1]", "values": [{"measurement": "shelf-life estimation based on colorant stability alone", "setting": "[1]", "value": "approximately a year"}, {"measurement": "change of visible spectrum from time 0", "setting": "[1]; 25° and 45° C., 94 days", "value": "has not changed significantly"}, {"measurement": "micro testing as a stand alone solution", "setting": "[2]", "value": "passes all micro testing"}]}
